SMILES strings stand for the structures.

In the assay the target is 5-hydroxytryptamine receptor 6 (Homo sapiens, UniProt P50406). As to the kind of experiment: Binding affinity against 5-hydroxytryptamine 6 receptor.
5-hydroxytryptamine receptor 6, sequence (P50406 whole entry): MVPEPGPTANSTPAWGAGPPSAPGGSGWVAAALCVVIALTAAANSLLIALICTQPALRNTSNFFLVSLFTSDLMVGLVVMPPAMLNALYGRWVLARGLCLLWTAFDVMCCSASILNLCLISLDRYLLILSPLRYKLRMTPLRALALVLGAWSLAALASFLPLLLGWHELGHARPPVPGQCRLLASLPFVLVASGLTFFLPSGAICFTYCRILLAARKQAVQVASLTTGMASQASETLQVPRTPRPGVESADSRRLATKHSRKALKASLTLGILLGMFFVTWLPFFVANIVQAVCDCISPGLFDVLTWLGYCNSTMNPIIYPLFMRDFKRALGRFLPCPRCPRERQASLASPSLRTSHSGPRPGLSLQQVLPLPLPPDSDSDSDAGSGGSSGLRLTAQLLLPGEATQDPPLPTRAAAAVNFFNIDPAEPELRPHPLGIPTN

As a reminder, the Ki is the equilibrium dissociation constant of an inhibitor or competing ligand from its target. A higher Ki goes with lower affinity. The compound `CN(C)CCC1=CC(Cc2ccccc2)c2ccccc21` (centres undefined) displayed a Ki of 3 nM.
Regarding `CN(C)CC[N+]1=CCc2ccccc21`, the affinity corresponds to a Ki of 1900 nM.
`CCCc1c(CCN(C)C)c2cc(OC)ccc2n1S(=O)(=O)c1ccccc1` displayed an inhibition constant (Ki) of 2.3 nM.
As for `CN(C)CCN1CCc2ccccc21`, the Ki is > 5000 nM.
In the case of `CN(C)CCn1ccc2ccccc21`, the Ki is > 5000 nM.
`COc1ccc2c(c1)c(CCN(C)C)cn2S(=O)(=O)c1ccc(N)cc1` gave a Ki of 0.6 nM.
The result for `CN(C)CCc1cn(Cc2ccccc2)c2ccccc12` reads 6 nM; that for `COc1ccc2c(c1)c(CCN(C)C)cn2S(=O)(=O)c1ccccc1`, 2 nM; that for `CCN(CC)CCc1cn(S(=O)(=O)c2ccccc2)c2ccc(OC)cc12`, 6 nM.
